Measurements from paper PMC9841288 (Journal of Translational Autoimmunity, 2022).

What was measured:
[1] = molecular target: CLK2 (Homo sapiens, UniProt P49760); experiment: KINOMEscan competition binding, single dose […]
[2] = molecular target: DYRK1B (Homo sapiens, UniProt Q9Y463); experiment: KINOMEscan competition binding, single dose […]
[3] = molecular target: MYLK (Homo sapiens, UniProt Q15746); experiment: KINOMEscan competition binding, single dose […]
[4] = molecular target: ALK(C1156Y) (Homo sapiens, UniProt Q9UM73, C1156Y); experiment: KINOMEscan competition binding, single dose […]
[5] = molecular target: CLK1 (Homo sapiens, UniProt P49759); experiment: KINOMEscan competition binding, single dose […]
[6] = molecular target: DYRK1A (Homo sapiens, UniProt Q13627); experiment: radiometric HotSpot kinase assay, […] ATP; type: biochemical
[7] = molecular target: ALK (Homo sapiens, UniProt Q9UM73); experiment: KINOMEscan competition binding, single dose […]
ALK, sequence (Q9UM73 19-1620): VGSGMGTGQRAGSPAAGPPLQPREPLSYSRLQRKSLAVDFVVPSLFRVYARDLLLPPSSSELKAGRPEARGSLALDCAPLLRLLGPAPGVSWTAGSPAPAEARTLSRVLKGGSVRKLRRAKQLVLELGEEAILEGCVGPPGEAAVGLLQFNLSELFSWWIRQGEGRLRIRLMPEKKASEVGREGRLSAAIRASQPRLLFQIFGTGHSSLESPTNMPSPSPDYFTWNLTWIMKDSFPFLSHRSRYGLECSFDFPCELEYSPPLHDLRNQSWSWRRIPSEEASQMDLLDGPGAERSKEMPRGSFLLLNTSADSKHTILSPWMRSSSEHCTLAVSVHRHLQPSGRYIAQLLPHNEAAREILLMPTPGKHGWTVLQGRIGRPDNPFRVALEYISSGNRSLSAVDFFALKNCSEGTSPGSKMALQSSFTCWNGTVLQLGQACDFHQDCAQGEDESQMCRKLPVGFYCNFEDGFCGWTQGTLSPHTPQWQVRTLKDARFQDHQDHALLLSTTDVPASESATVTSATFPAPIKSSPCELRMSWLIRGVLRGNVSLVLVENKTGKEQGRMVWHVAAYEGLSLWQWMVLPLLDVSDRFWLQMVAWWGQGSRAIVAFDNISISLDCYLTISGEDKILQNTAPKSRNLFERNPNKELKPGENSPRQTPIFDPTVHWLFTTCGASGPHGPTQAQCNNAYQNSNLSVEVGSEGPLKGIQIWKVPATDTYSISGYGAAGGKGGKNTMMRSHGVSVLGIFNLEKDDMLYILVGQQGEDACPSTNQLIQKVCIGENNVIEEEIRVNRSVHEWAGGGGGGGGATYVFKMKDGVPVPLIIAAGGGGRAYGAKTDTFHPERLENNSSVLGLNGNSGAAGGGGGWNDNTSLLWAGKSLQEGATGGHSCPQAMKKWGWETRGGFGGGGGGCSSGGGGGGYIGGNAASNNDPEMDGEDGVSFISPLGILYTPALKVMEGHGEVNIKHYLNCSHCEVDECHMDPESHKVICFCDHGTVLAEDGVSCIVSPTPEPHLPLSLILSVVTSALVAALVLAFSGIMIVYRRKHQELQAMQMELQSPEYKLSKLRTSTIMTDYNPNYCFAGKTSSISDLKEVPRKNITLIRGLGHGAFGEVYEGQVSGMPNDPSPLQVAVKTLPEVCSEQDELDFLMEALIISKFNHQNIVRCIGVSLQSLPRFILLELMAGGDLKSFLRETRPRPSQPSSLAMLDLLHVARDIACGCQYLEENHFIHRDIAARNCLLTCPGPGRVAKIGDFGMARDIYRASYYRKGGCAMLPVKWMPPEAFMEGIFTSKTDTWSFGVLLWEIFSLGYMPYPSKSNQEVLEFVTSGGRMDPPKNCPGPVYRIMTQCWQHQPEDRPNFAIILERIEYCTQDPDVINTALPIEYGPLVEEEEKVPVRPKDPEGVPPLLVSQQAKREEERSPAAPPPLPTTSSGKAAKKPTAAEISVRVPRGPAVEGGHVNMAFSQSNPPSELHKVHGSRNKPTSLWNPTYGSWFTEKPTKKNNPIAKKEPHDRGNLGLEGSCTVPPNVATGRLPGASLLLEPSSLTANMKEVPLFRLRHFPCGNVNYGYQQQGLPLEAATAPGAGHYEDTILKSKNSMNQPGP

CLK2, sequence (P49760 whole entry): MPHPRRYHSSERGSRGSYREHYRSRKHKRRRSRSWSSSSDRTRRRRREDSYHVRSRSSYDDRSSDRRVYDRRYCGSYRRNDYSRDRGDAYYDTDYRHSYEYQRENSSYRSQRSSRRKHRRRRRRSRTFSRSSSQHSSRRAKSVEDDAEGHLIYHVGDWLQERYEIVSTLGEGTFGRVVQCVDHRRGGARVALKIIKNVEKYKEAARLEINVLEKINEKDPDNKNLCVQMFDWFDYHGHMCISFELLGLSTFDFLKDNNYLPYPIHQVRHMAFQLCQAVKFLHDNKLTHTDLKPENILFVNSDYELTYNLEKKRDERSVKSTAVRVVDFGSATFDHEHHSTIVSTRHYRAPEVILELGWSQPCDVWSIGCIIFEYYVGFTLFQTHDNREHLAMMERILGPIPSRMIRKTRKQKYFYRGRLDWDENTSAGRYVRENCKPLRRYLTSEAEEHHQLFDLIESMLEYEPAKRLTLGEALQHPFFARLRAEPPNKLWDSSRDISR
MYLK, sequence (Q15746 whole entry): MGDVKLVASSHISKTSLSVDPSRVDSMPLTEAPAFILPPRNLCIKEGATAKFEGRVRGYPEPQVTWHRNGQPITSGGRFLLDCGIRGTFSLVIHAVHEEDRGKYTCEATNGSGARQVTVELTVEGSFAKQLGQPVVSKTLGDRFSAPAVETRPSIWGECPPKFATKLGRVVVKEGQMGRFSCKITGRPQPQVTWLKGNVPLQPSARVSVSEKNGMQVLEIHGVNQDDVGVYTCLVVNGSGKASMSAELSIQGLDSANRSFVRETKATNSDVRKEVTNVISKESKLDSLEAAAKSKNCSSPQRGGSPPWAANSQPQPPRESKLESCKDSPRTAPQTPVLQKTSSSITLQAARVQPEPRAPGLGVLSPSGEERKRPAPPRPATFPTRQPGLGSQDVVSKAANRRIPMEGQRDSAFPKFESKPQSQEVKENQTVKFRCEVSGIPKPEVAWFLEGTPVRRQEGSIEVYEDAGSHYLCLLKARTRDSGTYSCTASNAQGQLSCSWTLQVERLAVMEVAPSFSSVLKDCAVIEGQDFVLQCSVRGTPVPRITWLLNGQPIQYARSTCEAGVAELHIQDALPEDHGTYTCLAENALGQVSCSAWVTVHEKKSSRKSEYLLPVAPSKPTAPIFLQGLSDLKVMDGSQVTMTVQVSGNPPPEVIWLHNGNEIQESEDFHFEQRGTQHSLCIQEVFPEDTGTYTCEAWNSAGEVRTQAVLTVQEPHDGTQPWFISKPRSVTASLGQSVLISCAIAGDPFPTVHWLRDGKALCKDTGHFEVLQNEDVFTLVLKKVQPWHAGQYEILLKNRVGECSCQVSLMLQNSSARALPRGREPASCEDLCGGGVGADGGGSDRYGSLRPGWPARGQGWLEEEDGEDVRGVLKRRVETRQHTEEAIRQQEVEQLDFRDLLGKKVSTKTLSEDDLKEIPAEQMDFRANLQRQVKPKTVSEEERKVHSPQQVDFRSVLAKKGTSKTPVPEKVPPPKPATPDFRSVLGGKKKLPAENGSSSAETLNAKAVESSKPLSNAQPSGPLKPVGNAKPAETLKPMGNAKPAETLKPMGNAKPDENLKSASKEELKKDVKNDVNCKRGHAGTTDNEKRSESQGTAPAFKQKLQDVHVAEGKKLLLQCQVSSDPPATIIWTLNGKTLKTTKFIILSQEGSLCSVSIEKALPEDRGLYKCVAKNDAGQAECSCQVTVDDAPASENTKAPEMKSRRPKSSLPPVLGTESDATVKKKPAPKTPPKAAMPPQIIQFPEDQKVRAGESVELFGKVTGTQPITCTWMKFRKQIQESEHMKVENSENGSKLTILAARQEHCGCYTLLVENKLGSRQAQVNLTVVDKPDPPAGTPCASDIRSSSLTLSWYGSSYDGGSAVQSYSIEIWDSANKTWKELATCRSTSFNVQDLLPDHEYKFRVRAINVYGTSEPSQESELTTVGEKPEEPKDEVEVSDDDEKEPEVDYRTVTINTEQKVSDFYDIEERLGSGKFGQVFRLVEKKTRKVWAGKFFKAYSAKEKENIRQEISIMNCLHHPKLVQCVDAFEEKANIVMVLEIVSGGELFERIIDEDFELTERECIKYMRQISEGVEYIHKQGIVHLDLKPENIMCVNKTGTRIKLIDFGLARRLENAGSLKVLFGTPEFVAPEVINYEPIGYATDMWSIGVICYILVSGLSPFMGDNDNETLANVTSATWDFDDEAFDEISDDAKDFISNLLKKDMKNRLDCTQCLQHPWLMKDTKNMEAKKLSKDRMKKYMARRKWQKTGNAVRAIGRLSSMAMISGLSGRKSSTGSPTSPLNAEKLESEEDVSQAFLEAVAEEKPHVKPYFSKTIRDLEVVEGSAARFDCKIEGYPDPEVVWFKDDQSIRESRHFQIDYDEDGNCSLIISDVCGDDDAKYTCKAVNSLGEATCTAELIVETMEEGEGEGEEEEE
ALK(C1156Y), sequence (Q9UM73 1093-1411 C1156Y limits assumed): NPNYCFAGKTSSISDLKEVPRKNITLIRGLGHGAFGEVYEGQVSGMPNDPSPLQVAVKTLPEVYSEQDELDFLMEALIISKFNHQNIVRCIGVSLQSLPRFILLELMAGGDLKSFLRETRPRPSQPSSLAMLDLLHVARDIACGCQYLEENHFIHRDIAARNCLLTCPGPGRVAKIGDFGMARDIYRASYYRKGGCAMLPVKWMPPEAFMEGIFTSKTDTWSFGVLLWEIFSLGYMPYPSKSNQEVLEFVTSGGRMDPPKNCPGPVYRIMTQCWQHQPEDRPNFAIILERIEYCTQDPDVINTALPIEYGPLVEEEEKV
DYRK1B, sequence (Q9Y463 whole entry): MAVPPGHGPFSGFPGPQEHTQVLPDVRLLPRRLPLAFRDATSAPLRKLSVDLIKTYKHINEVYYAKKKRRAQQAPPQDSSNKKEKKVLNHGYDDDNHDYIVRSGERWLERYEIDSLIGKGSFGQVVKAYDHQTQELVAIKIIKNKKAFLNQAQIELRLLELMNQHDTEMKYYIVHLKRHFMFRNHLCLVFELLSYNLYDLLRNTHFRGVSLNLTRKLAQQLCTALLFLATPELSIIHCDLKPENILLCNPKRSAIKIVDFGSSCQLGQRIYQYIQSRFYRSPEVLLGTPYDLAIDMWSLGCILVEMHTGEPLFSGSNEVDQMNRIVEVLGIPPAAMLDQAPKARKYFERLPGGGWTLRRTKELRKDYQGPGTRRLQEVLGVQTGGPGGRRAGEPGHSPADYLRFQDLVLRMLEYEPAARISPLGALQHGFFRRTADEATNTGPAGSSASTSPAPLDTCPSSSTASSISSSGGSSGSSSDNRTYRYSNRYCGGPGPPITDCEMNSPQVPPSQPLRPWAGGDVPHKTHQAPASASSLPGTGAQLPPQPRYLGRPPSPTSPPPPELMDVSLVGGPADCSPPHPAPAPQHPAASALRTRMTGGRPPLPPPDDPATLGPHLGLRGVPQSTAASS

FRTX-02
% of control unbound at 1 μM [1]: 3.3
% of control unbound at 1 μM [2]: 1.8
% of control unbound at 1 μM [3]: 7.8
% of control unbound at 1 μM [4]: 2.5
% of control unbound at 1 μM [5]: 1.1
IC50 [6]: 2.9 nM
% of control unbound at 1 μM [7]: 3.5
